Results reported in US20120021519A1, “EFFICIENT INDUCTION OF PLURIPOTENT STEM CELLS USING SMALL MOLECULE COMPOUNDS” (PRESIDENTS AND FELLOWS OF HARVARD COLLEGE, priority 2008, published 2012).
Several values for one entry are separate records, joined by “and”; a condition that tells them apart may be missing. Equal entries are not always repeated. Entries after “also recorded” stand apart in the source; their conditions may differ. Where two headings read alike, the source gives them in different places.

Columns and labels:
[1] = tested on: stable Oct4::GFP-negative intermediate cell lines (OKM); experiment: Chemical reprogramming of stable intermediate cell lines from Oct4, Klf4, cMyc MEFs; type: cell-based, mouse
Protocol: (§1) Oct4::GFP-negative colonies in Oct4, Klf4, and cMyc or Oct4, Klf4, cMyc, and Sox2-infected MEF cultures were picked, plated on irradiated feeders, and single colonies were picked after 1 week. The resulting cell lines were passaged with trypsin and grown in mES media on feeders until passage 4, at which time they were treated with RepSox (25 μM), AZA (500 μM), or both for 48 hours. Oct4::GFP+colonies were scored 12 days after the beginning of chemical treatment.

[2] = tested on: stable Oct4::GFP-negative intermediate cell lines (OKMS); experiment: Chemical reprogramming of stable intermediate cell lines from Oct4, Klf4, cMyc, Sox2 MEFs; type: cell-based, mouse
Protocol: as §1

[3] = tested on: Klf4, cMyc, and Sox2-infected Oct4::GFP MEFs; experiment: Oct4 replacement: Oct4::GFP+ colonies in Klf4, cMyc, Sox2-infected MEFs; type: cell-based, mouse
Protocol: (§2) Moloney-based retroviral vectors (pMXs) expressing the murine complementary DNAs of Oct4, Sox2, c-Myc, and Klf4 were obtained from Addgene. These plasmids were transfected separately into individual populations of Plat-E packaging cells using Fugene 6, with 27 μl of Fugene 6 and 9 μg of DNA per 10 cm dish of Plat-E cells. Viral supernatants were obtained 48-72 hours post-transfection, filtered through a 0.22 μm filter, diluted 1:1 in MEF growth media, and supplemented with polybrene at a final concentration of 5 μg/ml. The supernatants for the four factors were mixed in an equimolar ratio, and media was used in place of a factor when it was omitted from the infection. MEFs were infected with two to three pools of viral supernatant during a 72-hour period. The first day that viral supernatant was termed “day 1 post-infection.”
(§3) On day 4 post-infection, infected MEFs were trypsinized and re-seeded on irradiated feeders in 96-well plates at 2000 cells/well and cultured in mouse ES cell media (Knockout DMEM supplemented with 15% Hyclone FBS, L-glutamine, penicillin/streptomycin, nonessential amino acids, β-mercaptoethanol, and 1000 U/ml LIF). The next day, compound stock solutions diluted in DMSO and, where applicable, VPA (Sigma), were added at a final concentration of 1 μM and 2 mM, respectively. VPA was removed after 1 week, and compound was re-applied every other day with each media change. Plates were scored for GFP+colonies after 11 of compound treatment.
The inventors re-iterated their screen to find small molecules that could replace Oct4 (FIG. 27A). The inventors modified their approach slightly and screened in normal mES culture media containing a higher concentration of VPA (2 mM). After transducing 7500 MEFs with the four reprogramming transgenes and treating with VPA, the inventors observed only ˜125 GFP+ colonies (FIG. 27C). […] Therefore we opted to continue the screen under these conditions.
Following transduction with only Klf4, cMyc, and Sox2, 2000 MEFS were cultured for 25 days in the presence of VPA and each compound from the chemical library (FIG. 27A). […] Additionally, Ropivacaine, a compound that both antagonizes Na^+-channels and that also activates p38 mitogen-activated protein kinase (MAPK)(25)(FIG. 27B), induced more than 10 colonies that had mES-like morphologies, but were not GFP+(FIG. 27C).

[4] = tested on: Oct4, Klf4, cMyc, and Sox2-infected MEFs; experiment: Reprogramming efficiency with all four factors; type: cell-based, mouse
Protocol: as §2
(§4) Retroviral infection and compound or antibody treatment was performed as in the original chemical screen. To quantify the numbers of GFP+colonies produced in
(§5) different conditions, the number of colonies in each well was counted and at least 2 different wells were counted and averaged. Concentrations of compounds and antibodies were the following: VPA (Sigma)-2 mM, RepSox (Calbiochem)-25 μM, E-616451 (Calbiochem)-3 μM, EI-275 (Biomol)-3 SB-431542 (Sigma)-25 μM, TgfβIIspecific antibody (R&D Systems, AB-12-NA)-10 μg/ml, pan-Tgβ antibody (R&D Systems, AB-100-NA)-10 μg/ml. Unless otherwise noted, all chemical treatments were continuous from initial administration at day 4-5 post-infection until GFP+colonies were scored. Fresh chemical was added at each media change.

[5] = tested on: Oct4, Klf4, and cMyc-infected Oct4::GFP MEFs; experiment: Sox2 replacement: Oct4::GFP+ colony formation in Oct4, Klf4, cMyc-infected MEFs; type: cell-based, mouse
Protocol: MEFs were derived from E12.5 embryos hemizygous for the Oct4::GFP transgenic allele. Gonads and internal organs were removed before processing the embryos for MEF isolation. MEFs were grown in DMEM supplemented with 10% FBS and penicillin/streptomycin. Low passage (up to passage 3) MEFs were used for generation of iPS cells.
as §2, §3
Infections and VPA/compound addition was done as in the original chemical screen, and wells were scored for GFP+ colonies on day 25 after compound addition.
as §4, §5

[6] = tested on: Oct4, cMyc and Sox2-infected Oct4::GFP MEFs; experiment: Klf4 replacement: Oct4::GFP+ colonies in Oct4, cMyc, Sox2-infected MEFs; type: cell-based, mouse
Protocol: as §2
as §3, with “VPA was removed after 1 week, and compound was re-applied every other day with each media change.” left out, “treatment. […]” for “treatment.”

[7] = tested on: Nanog; experiment: Nanog expression in partially reprogrammed intermediate cell lines; type: cell-based, mouse; details: lines OKM 10 and OKMS 7, 48 hours
Protocol: Cells were grown to near confluence on an irradiated layer and RNA was isolated with Trizol (Invitrogen). RNA was amplified and labeled with biotin using the Illumina Total Prep RNA Amplification Kit from Ambion, hybridized to Illumina Whole-Genome Expression BeadChips (MouseRef-8), and analyzed by an Illumina Beadstation 500. All lines were analyzed in biological duplicate or triplicate. Data were processed using Resolver software.

[8] = tested on: Tgf-β signaling; details: reference 32; cited from earlier work
[9] = tested on: MEFs transduced with Oct4, Klf4, and Sox2; experiment: cMyc replacement: Oct4::GFP+ colonies in the absence of cMyc; type: cell-based, mouse
Protocol: as §2, §4
different conditions, the number of colonies in each well was counted and at least 2 different wells were counted and averaged. […] Unless otherwise noted, all chemical treatments were continuous from initial administration at day 4-5 post-infection until GFP+colonies were scored. […]

SMILES: Nc1ncn([C@@H]2O[C@H](CO)[C@@H](O)[C@H]2O)c(=O)n1 [AZA, 5-aza-cytidine]
- lines reprogrammed out of 10 OKM intermediate lines ([1]; 48 hours treatment): none
- Oct4::GFP+ colonies in line OKM 10 ([1]; 48 hours, then 14 days culture): Neither chemical induced formation of Oct4::GFP+colonies
- Oct4::GFP expression in RepSox-responsive OKMS lines ([2]; 48 hours treatment and 12 subsequent days): none of the RepSox-responsive cell lines expressed Oct4::GFP
- lines reprogrammed out of 9 OKMS intermediate lines ([2]; 48 hours treatment at passage 4): one

SMILES: CCCCN1CCCCC1C(=O)Nc1c(C)cccc1C (stereo not drawn) [Bupivacaine]
- Oct4::GFP+ colonies in the absence of VPA ([3]; larger scale): independently induced GFP+colonies
- effect on reprogramming efficiency with all four iPS factors [4]: not enhanced
- effect on reprogramming efficiency with all four iPS factors ([4]; listed as Bupivocaine): do not increase the efficiency of reprogramming

SMILES: c1ccc(-c2n[nH]cc2-c2ccnc3ccccc23)nc1 [E-616451, [3-(Pyridin-2-yl)-4-(4-quinoyl)]-1H-pyrazole]
- rate of GFP+ colony formation with VPA ([5]; 1500 MEFs, + VPA, E-616452 25 μM, E-616451 3 μM, EI-275 3 μM): comparable to normal retroviral transduction with Sox2
- GFP+ colonies with mES-like morphology in primary screen ([5]; 2000 cells per well, compound 1 μM, 2 mM VPA for first 7 days, scored after 16 days): induced GFP+colonies
- concentration at which found to be most potent in reprogramming ([5]; E-616451 and EI-275 +VPA): 3 µM
- optimal concentration for Oct4::GFP+ colony formation ([5]; compound titration, 2 mM of VPA in all wells (FIG. 7)): greater than 1 μM
- GFP+ colonies in the absence of VPA ([5]; no VPA): could not induce the appearance of GFP+colonies
- effect on reprogramming efficiency with all four iPS factors [4]: not enhanced; also recorded: do not increase the efficiency of reprogramming

SMILES: O=C(O)c1cc(NCc2cc(O)ccc2O)ccc1O [HDBA, Lavendustin C]
- GFP+ colonies with mES-like morphology in Klf4 replacement screen ([6]; 2000 cells per well, 25 days, scored after 30 days): hit compounds
- induction of GFP+ colonies and dependence on VPA ([6]; larger scale validation): both with and without VPA
- effect on reprogramming efficiency with all four iPS factors [4]: do not increase the efficiency of reprogramming

SMILES: CCCN1CCCC[C@H]1C(=O)Nc1c(C)cccc1C [Ropivacaine]
- colonies becoming Oct4::GFP+ after added 5-aza-cytidine ([3]; VPA, then 5-aza-cytidine for 48 hours): majority of these colonies became Oct4::GFP+
- formation of GFP+ colonies, dependence on VPA and 5-aza-cytidine ([3]; larger scale): only when used in conjunction with VPA and 5-aza-cytidine
- colonies with mES-like morphologies but not GFP+ ([3]; screen with VPA): more than 10
- effect on reprogramming efficiency with all four iPS factors [4]: do not increase the efficiency of reprogramming

SMILES: NC(=O)c1ccc(-c2nc(-c3ccc4c(c3)OCO4)c(-c3ccccn3)[nH]2)cc1 [SB431542, 4-(5-benzo[1,3]dioxol-5-yl-4-pyridin-2-yl-1H-imidazol-2-yl)-benzamide]
- Nanog expression versus untreated control [7]: strongly increased
- concentration required for complete Tgf-β inhibition [8]: greater than 1 μM
- GFP+ colonies per 7500 cells plated ([5]; 25 μM): −10
- effect on reprogramming efficiency with all four iPS factors [4]: do not increase the efficiency of reprogramming
- reprogramming efficiency in the absence of cMyc [9]: increased reprogramming efficiency

SMILES: COC1=C[C@@H]2[C@@H]3Cc4ccc(OC)c(O)c4C2(CCN3C)CC1=O [Sinomenine]
- GFP+ colonies in Oct4 replacement screen ([3]; 2000 MEFs, 25 days, VPA 2 mM): induced GFP+colonies
- Oct4::GFP+ colonies in the absence of VPA ([3]; larger scale): failed to induce Oct4::GFP+colonies
- Oct4::GFP+ colonies in the presence of VPA ([3]; larger scale): induced Oct4::GFP+colonies
- effect on reprogramming efficiency with all four iPS factors ([4]; listed as Simomenine): not enhanced
- effect on reprogramming efficiency with all four iPS factors ([4]; listed as Sinimonine): do not increase the efficiency of reprogramming

SMILES: CCCC(CCC)C(=O)O [VPA, valproic acid]
- GFP+ colonies with VPA alone ([5]; 1500 MEFs, VPA only, no Sox2): no GFP+colonies were observed
- increase in the number of GFP+ colonies over the untreated control [4]: greater than 10 fold
- GFP+ colonies per 7500 MEFs in medium with VPA ([4]; four transgenes + VPA): 100-200 and ~125
